Measured values published in US11072611B2, “Compounds and pharmaceutical compositions thereof for the treatment of inflammatory disorders” (Galapagos NV, priority 2013, dated 2021).

System: LPA 18:2
Assay: Rat whole blood (plasma) LPA assay
Type: biochemical
Settings: 2 h at 37° C., LPA 18:2 by LC-MS/MS
Description: (§1) Whole blood is collected from rats or mouse by exsanguinations on sodium heparin tube, then after centrifugation at 3000 rpm for 15 min at 4° C., plasma is stored at −80° C. Compounds are diluted in DMSO in concentration dependent manner then 0.5 μL are dispensed into 96-well plate placed in ice. Plasma is defrosted on ice then 49.5 μL of plasma are added into the well containing 0.5 μL of compound (1% DMSO final). Plates are covered with a lid in polypropylene and incubated at +37° C., 5% CO2, for 2 h under gentle shaking (except controls which are stored at −20° C.).
(§2) At the end of the incubation, controls are defrosted in ice and transferred in the incubated plates for LC-MS/MS analysis with a non GLP-validated method. For the analysis, plasma proteins from a 10 μL incubated plates are precipitated with an excess of methanol containing the internal standard, LPA 17:0. After centrifugation, the corresponding supernatant is injected on a C18 column. Analytes are eluted out of the column under isocratic conditions. An API5500 QTRAP mass spectrometer (ABSciex™) is used for the detection of LPA 18:2. No calibration curve is prepared for LPA 18:2, however relative quantities are evaluated based on the peak area.

SMILES | IC50 [nM]
CCc1nc2c(F)cc(N3CCN(CC(=O)N4CC(O)C4)CC3)cn2c1N(C)c1nc(-c2ccc(F)cc2)c(C#N)s1 [Compound 12, 2-((2-ethyl-8-fluoro-6-(4-(2-(3-hydroxyazetidin-1-yl)-2-oxoethyl)piperazin-1-yl)imidazo[1,2-a]pyridin-3-yl)(methyl)amino)-4-(4-fluorophenyl)thiazole-5-carbonitrile] | 0.01 to 100
CCc1nc2ccc(C3CCN(CC(=O)N4CC(O)C4)CC3)cn2c1N(C)c1nc(-c2ccc(F)cc2)cs1 [Compound 110, 2-(4-(2-ethyl-3-((4-(4-fluorophenyl)thiazol-2-yl)(methyl)amino)imidazo[1,2-a]pyridin-6-yl)piperidin-1-yl)-1-(3-hydroxyazetidin-1-yl)ethanone] | > 1000
CCc1nc2ccc(C3CCN(CC(=O)N4CC(O)C4)CC3)cn2c1N(C)c1nc(-c2ccc(F)cc2)c(CO)s1 [Compound 156, 2-(4-(2-ethyl-3-((4-(4-fluorophenyl)-5-(hydroxymethyl)thiazol-2-yl)(methyl)amino)imidazo[1,2-a]pyridin-6-yl)piperidin-1-yl)-1-(3-hydroxyazetidin-1-yl)ethanone] | > 1000
CCc1nc2ccc(C3CCN(S(C)(=O)=O)CC3)cn2c1N(C)c1nc(-c2ccc(F)cc2)c(C(=O)C(F)(F)F)s1 [Compound 160, 1-(2-((2-ethyl-6-(1-(methylsulfonyl)piperidin-4-yl)imidazo[1,2-a]pyridin-3-yl)(methyl)amino)-4-(4-fluorophenyl)thiazol-5-yl)-2,2,2-trifluoroethanone] | 0.01 to 100
CN(C)C(=O)CN1CCC(c2ccc3nc(CCC#N)c(N(C)c4nc(-c5ccc(F)cc5)cs4)n3c2)CC1 [Compound 174, 2-(4-(2-(2-cyanoethyl)-3-((4-(4-fluorophenyl)thiazol-2-yl)(methyl)amino)imidazo[1,2-a]pyridin-6-yl)piperidin-1-yl)-N,N-dimethylacetamide] | 0.01 to 100
CN(c1nc(-c2ccc(F)cc2)c(CO)s1)c1c(CCC#N)nc2ccc(C3CCN(S(C)(=O)=O)CC3)cn12 [Compound 175, 3-(3-((4-(4-fluorophenyl)-5-(hydroxymethyl)thiazol-2-yl)(methyl)amino)-6-(1-(methylsulfonyl)piperidin-4-yl)imidazo[1,2-a]pyridin-2-yl)propanenitrile] | 0.01 to 100
CCc1nc2ccc(N3CCN(CCO)CC3)cn2c1N(C)c1nc(-c2ccc(F)cc2)cs1 [Compound 180, 2-(4-(2-ethyl-3-((4-(4-fluorophenyl)thiazol-2-yl)(methyl)amino)imidazo[1,2-a]pyridin-6-yl)piperazin-1-yl)ethanol] | > 1000
CCc1nc2ccc(N3CCS(=O)(=O)CC3)cn2c1N(C)c1nc(-c2ccc(F)cc2)cs1 [Compound 182, 4-(2-ethyl-3-((4-(4-fluorophenyl)thiazol-2-yl)(methyl)amino)imidazo[1,2-a]pyridin-6-yl)-thiomorpholine 1,1-dioxide] | > 1000
CCc1nc2ccc(N3CCN(S(C)(=O)=O)CC3)cn2c1N(C)c1nc(-c2ccc(Cl)cc2)ns1 [Compound 188, 3-(4-chlorophenyl)-N-(2-ethyl-6-(4-(methylsulfonyl)piperazin-1-yl)imidazo[1,2-a]pyridin-3-yl)-N-methyl-1,2,4-thiadiazol-5-amine] | > 1000
CCc1nc2ccc(N3CCN(Cc4cnc[nH]4)CC3)cn2c1N(C)c1nc(-c2ccc(F)cc2)cs1 [Compound 192, N-(6-(4-((1H-imidazol-5-yl)methyl)piperazin-1-yl)-2-ethylimidazo[1,2-a]pyridin-3-yl)-4-(4-fluorophenyl)-N-methylthiazol-2-amine] | > 1000
CCc1nc2ccc(N3CCN(C(=O)[C@H](C)O)CC3)cn2c1N(C)c1nc(-c2ccc(F)cc2)cs1 [Compound 203, (S)-1-(4-(2-ethyl-3-((4-(4-fluorophenyl)thiazol-2-yl)(methyl)amino)imidazo[1,2-a]pyridin-6-yl)piperazin-1-yl)-2-hydroxypropan-1-one] | > 1000
CCc1nc2ccc(N3CCOC3=O)cn2c1N(C)c1nc(-c2ccc(Cl)cc2)cs1 [Compound 206, 3-(3-((4-(4-chlorophenyl)thiazol-2-yl)(methyl)amino)-2-ethylimidazo[1,2-a]pyridin-6-yl)oxazolidin-2-one] | > 1000
CCc1nc2ccc(N3CCN(CCO)CC3)cn2c1N(C)c1nc(-c2ccc(Cl)cc2)cs1 [Compound 212, 2-(4-(3-((4-(4-chlorophenyl)thiazol-2-yl)(methyl)amino)-2-ethylimidazo[1,2-a]pyridin-6-yl)piperazin-1-yl)ethanol] | > 1000
CCc1nc2ccc(N3CCS(=O)(=O)CC3)cn2c1N(C)c1nc(-c2ccc(Cl)cc2)cs1 [Compound 213, 4-(2-ethyl-3-((4-(4-chlorophenyl)thiazol-2-yl)(methyl)amino)imidazo[1,2-a]pyridin-6-yl)-thiomorpholine-1,1-dioxide] | > 1000
CCc1nc2ccc(N3CCN(Cc4ncc[nH]4)CC3)cn2c1N(C)c1nc(-c2ccc(F)cc2)cs1 [Compound 226, N-(6-(4-((1H-imidazol-2-yl)methyl)piperazin-1-yl)-2-ethylimidazo[1,2-a]pyridin-3-yl)-4-(4-fluorophenyl)-N-methylthiazol-2-amine] | > 1000

System: tobacco smoke induced recruitment of inflammatory cells to the lungs
Assay: Tobacco smoke (TS) model, lungs inflammatory cells recruitment
Type: in vivo, female C57BL/6J mice
Settings: 3 mg/kg twice daily p.o., TS-exposed mice
Description: The aim of this experiment is to evaluate the efficacy and potency of a test compound administered p.o., once or twice daily on days 6 to 11, vs reference compounds, on pulmonary inflammation induced by 11 days of TS-exposure in female C57BL/6J mice, by assessing the effect of a test compound on the tobacco smoke induced recruitment of inflammatory cells to the lungs.
The test compounds are formulated in PEG200/0.5% methylcellulose (25/75, v/v) and are given at a dose volume of 10 mL/kg. Roflumilast and Dexamethasone are included as positive […] control, respectively. Each treatment group consists of 10 mice.
A first group of mice is subjected to daily TS-exposure for 5 consecutive days and sacrificed on the day 6, 24 h after the final TS-exposure.
A second group is exposed to air for 5 consecutive days (sham exposure) and sacrificed on the day 6, 24 h after the final air-exposure.
Compound and reference-treated groups are subjected to daily TS-exposure for 11 consecutive days and sacrificed on the day 12, 24 h after the final TS-exposure. Mice are dosed p.o. on days 6 to 11, twice daily, 1 h prior to and 6 h after each TS-exposure, with either vehicle, or the test compound at 3, 5, 10 or 30 mg/kg. Another group is dosed p.o. on days 6 to 11, once daily, 1 h prior to each TS-exposure, with either vehicle, or the test compound at 10 mg/kg.
An additional group is dosed p.o., once daily, on days 6 to 11, with roflumilast at 5 mg/kg, 1 h prior to each TS-exposure. Dexamethasone is dosed p.o., twice daily, on days 6 to 11, at 0.3 mg/kg, 1 h prior to and 6 h after each TS-exposure.
For each mouse, a BAL is performed using 0.4 mL of PBS. The lavage fluid is centrifuged, the supernatant removed and the resulting cell pellet re-suspended for total cell counts and cytospin slide preparation. […]
The lungs are dissected out and the left lobes are removed, snap-frozen and stored at −80° C. […] Cell data are presented as individual data points for each animal and the mean value calculated for each group. […]
Percentage inhibitions for the cell data are calculated using the formula below: […]

SMILES | number of cells recovered in the BALF (macrophage cells, epithelial cells, neutrophils)
CCc1nc2c(C)cc(N3CCN(CC(=O)N4CC(O)C4)CC3)cn2c1N(C)c1nc(-c2ccc(F)cc2)c(C#N)s1 [Compound 2, 2-((2-ethyl-6-(4-(2-(3-hydroxyazetidin-1-yl)-2-oxoethyl)piperazin-1-yl)-8-methylimidazo[1,2-a]pyridin-3-yl)(methyl)amino)-4-(4-fluorophenyl)thiazole-5-carbonitrile] | significantly inhibited

Same assay, conditions: 10 mg/kg twice daily p.o., TS-exposed mice

SMILES | number of cells recovered in the BALF (macrophage cells, epithelial cells, neutrophils)
CCc1nc2c(C)cc(N3CCN(CC(=O)N4CC(O)C4)CC3)cn2c1N(C)c1nc(-c2ccc(F)cc2)c(C#N)s1 [Compound 2, 2-((2-ethyl-6-(4-(2-(3-hydroxyazetidin-1-yl)-2-oxoethyl)piperazin-1-yl)-8-methylimidazo[1,2-a]pyridin-3-yl)(methyl)amino)-4-(4-fluorophenyl)thiazole-5-carbonitrile] | significantly inhibited
CCc1nc2c(F)cc(N3CCN(CC(=O)N4CC(O)C4)CC3)cn2c1N(C)c1nc(-c2ccc(F)cc2)c(C#N)s1 [Compound 12, 2-((2-ethyl-8-fluoro-6-(4-(2-(3-hydroxyazetidin-1-yl)-2-oxoethyl)piperazin-1-yl)imidazo[1,2-a]pyridin-3-yl)(methyl)amino)-4-(4-fluorophenyl)thiazole-5-carbonitrile] | significantly inhibited

System: LPA 18:2
Assay: Human whole blood (plasma) LPA assay
Type: biochemical
Settings: 2 h at 37° C., LPA 18:2 by LC-MS/MS
Description: as §1, with “Blood is” for “Whole blood is”, “from healthy volunteers who gave informed consent into” for “from rats or mouse by exsanguinations on”, “heparin tubes by venipuncture,” for “heparin tube,”, “then gently inverted several times to prevent clotting. Tubes are centrifuged” for “then after centrifugation”, “4° C. then” for “4° C.,”
as §2

SMILES | IC50 [nM]
CCc1nc2ccc(C3CCN(S(C)(=O)=O)CC3)cn2c1N(C)c1nc(-c2ccc(F)cc2)cs1 [Compound 80, N-(2-ethyl-6-(1-(methylsulfonyl)piperidin-4-yl)imidazo[1,2-a]pyridin-3-yl)-4-(4-fluorophenyl)-N-methylthiazol-2-amine] | > 1000
CCc1nc2ccc(C3CCN(CC(=O)N4CC(O)C4)CC3)cn2c1N(C)c1nc(-c2ccc(F)cc2)cs1 [Compound 110, 2-(4-(2-ethyl-3-((4-(4-fluorophenyl)thiazol-2-yl)(methyl)amino)imidazo[1,2-a]pyridin-6-yl)piperidin-1-yl)-1-(3-hydroxyazetidin-1-yl)ethanone] | > 1000
